Measured values reported in ChEMBL document CHEMBL1201862, “PubChem BioAssay data set” (2004).
Activity calls are given as the source filed them.

Assays:
Format in all cases: functional
[1] = biological target: Serine/threonine-protein kinase PAK 4 (Homo sapiens, UniProt O96013);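 note: value obtained within a kinome profiling panel in which PAK4 was one of the panel members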
[2] = biological target: Cyclin-dependent kinase 8 (Homo sapiens, UniProt P49336); assay: Navigating the Kinome. Panel member name: CDK8
[3] = biological target: Leucine-rich repeat serine/threonine-protein kinase 2 (Homo sapiens, UniProt Q5S007);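 note: value from a broad kinome-wide panel profiling study in which LRRK2 was one of the kinases tested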
[4] = biological target: Protein kinase C theta type (Homo sapiens, UniProt Q04759); assay: Navigating the Kinome. Panel member name: PRKCQ
[5] = biological target: Mitogen-activated protein kinase kinase kinase kinase 2 (Homo sapiens, UniProt Q12851);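 note: measured as one member of a kinome-wide kinase panel, with MAP4K2 as the panel entry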
[6] = biological target: Glycogen synthase kinase-3 alpha (Homo sapiens, UniProt P49840);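 note: GSK3A result taken from a broad kinome-wide kinase panel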
[7] = biological target: Fibroblast growth factor receptor 1 (Homo sapiens, UniProt P11362)
[8] = biological target: Calcium/calmodulin-dependent protein kinase type II subunit alpha (Homo sapiens, UniProt Q9UQM7); assay: Navigating the Kinome. Panel member name: CAMK2A
[9] = biological target: Vascular endothelial growth factor receptor 1 (Homo sapiens, UniProt P17948);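 note: measured within a kinome-wide profiling panel, FLT1 as the panel member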
[10] = biological target: Platelet-derived growth factor receptor alpha (Homo sapiens, UniProt P16234); assay: Navigating the Kinome. Panel member name: PDGFRA
[11] = biological target: Tyrosine-protein kinase receptor TYRO3 (Homo sapiens, UniProt Q06418);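 note: TYRO3 value obtained as one member of a kinome-wide profiling panel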
[12] = biological target: Rho-associated protein kinase 1 (Homo sapiens, UniProt Q13464);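 note: measured within a broad kinome-wide panel profiling many kinases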
[13] = biological target: Tyrosine-protein kinase JAK3 (Homo sapiens, UniProt P52333)
[14] = biological target: Serine/threonine-protein kinase Nek2 (Homo sapiens, UniProt P51955)
[15] = biological target: Tyrosine-protein kinase BTK (Homo sapiens, UniProt Q06187)
[16] = biological target: ALK tyrosine kinase receptor (Homo sapiens, UniProt Q9UM73);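 note: ALK tested as one member of a kinase panel screen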
[17] = biological target: Dual specificity tyrosine-phosphorylation-regulated kinase 1B (Homo sapiens, UniProt Q9Y463); assay: Navigating the Kinome. Panel member name: DYRK1B
[18] = biological target: Serine/threonine-protein kinase TAO1 (Homo sapiens, UniProt Q7L7X3)
[19] = biological target: Tyrosine-protein kinase JAK2 (Homo sapiens, UniProt O60674);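 note: JAK2 tested as one member of a kinase panel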
LIM domain kinase 1 = LIM domain kinase 1 (Homo sapiens, UniProt P53667); assay: Navigating the Kinome. Panel member name: LIMK1
[20] = biological target: Tyrosine-protein kinase ABL1 (Homo sapiens, UniProt P00519)
[21] = biological target: Dual specificity protein kinase CLK4 (Homo sapiens, UniProt Q9HAZ1)
[22] = biological target: Death-associated protein kinase 3 (Homo sapiens, UniProt O43293);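 note: measured as one member of a kinome-wide profiling panel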
[23] = biological target: Inhibitor of nuclear factor kappa-B kinase subunit epsilon (Homo sapiens, UniProt Q14164); assay: Navigating the Kinome. Panel member name: IKBKE
[24] = biological target: Dual specificity tyrosine-phosphorylation-regulated kinase 1A (Homo sapiens, UniProt Q13627);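 note: measured against DYRK1A as one member of a broad kinome profiling panel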
[25] = biological target: Macrophage-stimulating protein receptor (Homo sapiens, UniProt Q04912); assay: Navigating the Kinome. Panel member name: MST1R
[26] = biological target: Vascular endothelial growth factor receptor 2 (Homo sapiens, UniProt P35968)
[27] = biological target: Serine/threonine-protein kinase TBK1 (Homo sapiens, UniProt Q9UHD2); assay: Navigating the Kinome. Panel member name: TBK1
Aurora kinase A = biological target: T1, Aurora kinase A (Homo sapiens, UniProt O14965);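 note: value from the Navigating the Kinome kinase panel profiling, panel entry STK6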
T1 sequence (O14965 whole entry): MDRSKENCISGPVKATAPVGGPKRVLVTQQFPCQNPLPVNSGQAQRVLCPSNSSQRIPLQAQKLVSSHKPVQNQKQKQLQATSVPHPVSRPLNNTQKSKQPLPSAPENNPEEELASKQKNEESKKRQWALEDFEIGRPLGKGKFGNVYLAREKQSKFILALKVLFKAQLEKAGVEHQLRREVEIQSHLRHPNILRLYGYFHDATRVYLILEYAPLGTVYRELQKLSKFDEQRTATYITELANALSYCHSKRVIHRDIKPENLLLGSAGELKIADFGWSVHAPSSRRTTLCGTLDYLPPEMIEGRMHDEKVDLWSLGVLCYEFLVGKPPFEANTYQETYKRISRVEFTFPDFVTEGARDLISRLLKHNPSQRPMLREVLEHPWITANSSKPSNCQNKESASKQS

[28] = biological target: Receptor-type tyrosine-protein kinase FLT3 (Homo sapiens, UniProt P36888);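 note: FLT3 was tested as one member of a kinome-wide kinase panel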
[29] = biological target: Proto-oncogene tyrosine-protein kinase receptor Ret (Homo sapiens, UniProt P07949);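 note: measured within a kinome-wide profiling panel, RET as the panel member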
[30] = biological target: Hepatocyte growth factor receptor (Homo sapiens, UniProt P08581);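 note: kinase panel profiling across the kinome, with MET as the panel member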
[31] = biological target: 5'-AMP-activated protein kinase catalytic subunit alpha-1 (Homo sapiens, UniProt Q13131)
[32] = biological target: Cyclin-dependent kinase 5 (Homo sapiens, UniProt Q00535);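 note: CDK5 measured as one member of a kinase profiling panel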
Activin receptor type-1 = Activin receptor type-1 (Homo sapiens, UniProt Q04771); assay: Navigating the Kinome. Panel member name: ACVR1

Sequence of Tyrosine-protein kinase BTK (Q06187 whole entry): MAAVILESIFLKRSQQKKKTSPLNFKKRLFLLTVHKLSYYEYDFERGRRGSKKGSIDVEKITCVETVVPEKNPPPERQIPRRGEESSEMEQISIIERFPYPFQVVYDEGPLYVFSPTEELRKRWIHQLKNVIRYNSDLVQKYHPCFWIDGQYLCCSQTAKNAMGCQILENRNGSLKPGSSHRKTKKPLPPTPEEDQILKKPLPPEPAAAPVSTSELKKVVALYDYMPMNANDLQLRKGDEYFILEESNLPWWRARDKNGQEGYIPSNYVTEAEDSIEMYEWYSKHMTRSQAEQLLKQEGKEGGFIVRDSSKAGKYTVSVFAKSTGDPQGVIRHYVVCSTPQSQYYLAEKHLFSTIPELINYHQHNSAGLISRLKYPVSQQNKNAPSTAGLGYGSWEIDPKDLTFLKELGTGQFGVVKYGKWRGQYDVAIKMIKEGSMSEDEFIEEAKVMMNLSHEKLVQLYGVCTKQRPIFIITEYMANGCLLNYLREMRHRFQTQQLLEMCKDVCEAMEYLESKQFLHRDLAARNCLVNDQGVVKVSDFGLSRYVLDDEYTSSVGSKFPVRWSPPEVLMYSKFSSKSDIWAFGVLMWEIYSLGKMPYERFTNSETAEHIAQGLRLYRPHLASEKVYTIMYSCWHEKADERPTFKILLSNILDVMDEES
Sequence of Platelet-derived growth factor receptor alpha (P16234 whole entry): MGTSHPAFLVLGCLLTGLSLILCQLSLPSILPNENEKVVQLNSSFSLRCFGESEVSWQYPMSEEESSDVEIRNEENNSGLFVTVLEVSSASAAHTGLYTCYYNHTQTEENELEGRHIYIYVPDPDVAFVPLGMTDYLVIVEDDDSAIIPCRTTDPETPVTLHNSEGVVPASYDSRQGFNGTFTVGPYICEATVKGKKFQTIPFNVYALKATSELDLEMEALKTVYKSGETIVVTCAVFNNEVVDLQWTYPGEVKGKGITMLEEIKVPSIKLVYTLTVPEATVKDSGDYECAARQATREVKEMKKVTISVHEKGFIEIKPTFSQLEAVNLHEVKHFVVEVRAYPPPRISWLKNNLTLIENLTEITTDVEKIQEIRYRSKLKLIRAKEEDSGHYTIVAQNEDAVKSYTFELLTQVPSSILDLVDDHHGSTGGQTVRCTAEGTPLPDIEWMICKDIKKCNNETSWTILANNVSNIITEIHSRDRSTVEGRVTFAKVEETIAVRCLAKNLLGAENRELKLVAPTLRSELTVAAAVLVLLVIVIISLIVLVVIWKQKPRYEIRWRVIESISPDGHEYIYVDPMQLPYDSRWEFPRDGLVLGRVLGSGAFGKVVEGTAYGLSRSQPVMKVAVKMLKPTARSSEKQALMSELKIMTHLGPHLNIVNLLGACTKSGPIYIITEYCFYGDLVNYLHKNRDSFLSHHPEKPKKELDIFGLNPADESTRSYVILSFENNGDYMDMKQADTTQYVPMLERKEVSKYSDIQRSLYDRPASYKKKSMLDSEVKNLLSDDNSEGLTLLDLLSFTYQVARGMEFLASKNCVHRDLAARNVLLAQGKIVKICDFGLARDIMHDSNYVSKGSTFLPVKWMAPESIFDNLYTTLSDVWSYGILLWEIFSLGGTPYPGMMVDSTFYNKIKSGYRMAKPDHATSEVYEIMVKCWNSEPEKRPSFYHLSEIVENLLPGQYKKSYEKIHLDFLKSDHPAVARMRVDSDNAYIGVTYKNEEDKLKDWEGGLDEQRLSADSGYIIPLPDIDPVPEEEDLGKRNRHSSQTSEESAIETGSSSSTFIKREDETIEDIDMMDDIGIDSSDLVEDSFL
Sequence of Cyclin-dependent kinase 8 (P49336 whole entry): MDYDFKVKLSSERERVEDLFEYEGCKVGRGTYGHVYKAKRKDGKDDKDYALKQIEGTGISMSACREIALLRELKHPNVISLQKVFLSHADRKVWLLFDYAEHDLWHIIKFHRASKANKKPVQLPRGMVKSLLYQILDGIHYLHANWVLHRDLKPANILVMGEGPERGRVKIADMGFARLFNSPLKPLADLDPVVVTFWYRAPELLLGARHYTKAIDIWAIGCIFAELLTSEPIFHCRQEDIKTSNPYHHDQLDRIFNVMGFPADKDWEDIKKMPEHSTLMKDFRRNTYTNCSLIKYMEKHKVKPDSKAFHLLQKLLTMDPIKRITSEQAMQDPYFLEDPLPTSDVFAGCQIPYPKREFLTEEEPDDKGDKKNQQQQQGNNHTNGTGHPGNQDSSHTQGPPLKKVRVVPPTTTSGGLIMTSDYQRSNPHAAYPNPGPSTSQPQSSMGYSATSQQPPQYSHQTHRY
Sequence of Vascular endothelial growth factor receptor 1 (P17948 whole entry): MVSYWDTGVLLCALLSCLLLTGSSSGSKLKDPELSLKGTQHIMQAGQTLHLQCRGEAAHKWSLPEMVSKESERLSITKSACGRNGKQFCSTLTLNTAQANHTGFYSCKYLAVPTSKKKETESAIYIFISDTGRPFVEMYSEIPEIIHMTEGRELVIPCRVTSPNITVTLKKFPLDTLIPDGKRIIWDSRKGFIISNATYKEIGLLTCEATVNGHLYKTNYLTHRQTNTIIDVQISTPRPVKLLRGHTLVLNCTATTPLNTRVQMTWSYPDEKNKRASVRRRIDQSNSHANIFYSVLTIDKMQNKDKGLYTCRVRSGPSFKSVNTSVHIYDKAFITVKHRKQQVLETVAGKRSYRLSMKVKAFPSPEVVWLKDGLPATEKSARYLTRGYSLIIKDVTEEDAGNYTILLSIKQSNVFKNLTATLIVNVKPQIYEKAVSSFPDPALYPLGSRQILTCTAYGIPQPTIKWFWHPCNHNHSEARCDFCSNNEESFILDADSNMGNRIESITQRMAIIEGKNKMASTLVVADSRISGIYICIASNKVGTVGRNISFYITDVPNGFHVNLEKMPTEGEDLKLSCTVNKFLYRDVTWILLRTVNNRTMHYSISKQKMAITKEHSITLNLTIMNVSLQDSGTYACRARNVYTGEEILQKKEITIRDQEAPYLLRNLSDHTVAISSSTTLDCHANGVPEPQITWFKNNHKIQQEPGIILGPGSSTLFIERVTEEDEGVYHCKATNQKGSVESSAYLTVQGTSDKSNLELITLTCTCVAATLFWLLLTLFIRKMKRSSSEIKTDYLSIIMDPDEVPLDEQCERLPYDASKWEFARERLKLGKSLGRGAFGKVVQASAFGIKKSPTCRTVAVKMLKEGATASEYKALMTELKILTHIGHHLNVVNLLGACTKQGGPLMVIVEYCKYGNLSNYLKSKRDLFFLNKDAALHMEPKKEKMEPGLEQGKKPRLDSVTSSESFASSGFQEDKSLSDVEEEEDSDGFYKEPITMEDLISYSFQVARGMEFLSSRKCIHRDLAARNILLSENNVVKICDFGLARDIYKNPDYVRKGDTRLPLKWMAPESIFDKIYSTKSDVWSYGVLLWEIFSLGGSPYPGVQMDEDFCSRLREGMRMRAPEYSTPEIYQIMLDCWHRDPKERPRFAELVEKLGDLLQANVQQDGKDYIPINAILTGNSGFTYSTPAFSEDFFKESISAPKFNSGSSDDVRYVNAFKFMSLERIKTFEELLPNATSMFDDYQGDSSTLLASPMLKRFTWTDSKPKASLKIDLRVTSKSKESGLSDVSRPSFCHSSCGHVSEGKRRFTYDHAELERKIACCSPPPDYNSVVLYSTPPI
Sequence of Serine/threonine-protein kinase TAO1 (Q7L7X3 whole entry): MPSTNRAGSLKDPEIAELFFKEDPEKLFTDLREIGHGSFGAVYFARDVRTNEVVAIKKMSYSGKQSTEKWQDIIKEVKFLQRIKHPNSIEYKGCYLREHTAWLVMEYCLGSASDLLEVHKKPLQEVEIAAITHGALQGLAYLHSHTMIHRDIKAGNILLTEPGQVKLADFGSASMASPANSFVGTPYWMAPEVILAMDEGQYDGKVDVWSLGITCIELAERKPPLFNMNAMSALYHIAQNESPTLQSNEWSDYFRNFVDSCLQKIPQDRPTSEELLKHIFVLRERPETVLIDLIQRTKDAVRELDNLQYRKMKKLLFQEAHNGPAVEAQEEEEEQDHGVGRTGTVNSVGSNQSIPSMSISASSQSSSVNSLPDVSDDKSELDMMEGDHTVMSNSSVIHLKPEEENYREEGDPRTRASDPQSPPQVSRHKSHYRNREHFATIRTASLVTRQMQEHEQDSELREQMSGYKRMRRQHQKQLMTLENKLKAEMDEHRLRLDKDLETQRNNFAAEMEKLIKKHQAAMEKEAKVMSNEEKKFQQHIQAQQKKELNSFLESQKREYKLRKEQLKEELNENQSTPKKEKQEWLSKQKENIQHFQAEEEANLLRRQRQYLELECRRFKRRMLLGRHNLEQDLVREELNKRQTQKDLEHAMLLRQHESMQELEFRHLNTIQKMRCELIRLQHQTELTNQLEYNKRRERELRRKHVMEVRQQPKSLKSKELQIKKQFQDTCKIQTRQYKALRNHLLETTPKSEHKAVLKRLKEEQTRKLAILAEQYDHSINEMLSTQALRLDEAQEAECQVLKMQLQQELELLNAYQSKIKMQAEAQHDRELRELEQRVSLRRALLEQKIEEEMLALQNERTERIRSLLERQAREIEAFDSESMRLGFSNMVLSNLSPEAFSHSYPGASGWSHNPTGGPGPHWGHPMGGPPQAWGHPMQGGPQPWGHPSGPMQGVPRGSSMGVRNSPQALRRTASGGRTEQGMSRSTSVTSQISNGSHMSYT
Sequence of Glycogen synthase kinase-3 alpha (P49840 whole entry): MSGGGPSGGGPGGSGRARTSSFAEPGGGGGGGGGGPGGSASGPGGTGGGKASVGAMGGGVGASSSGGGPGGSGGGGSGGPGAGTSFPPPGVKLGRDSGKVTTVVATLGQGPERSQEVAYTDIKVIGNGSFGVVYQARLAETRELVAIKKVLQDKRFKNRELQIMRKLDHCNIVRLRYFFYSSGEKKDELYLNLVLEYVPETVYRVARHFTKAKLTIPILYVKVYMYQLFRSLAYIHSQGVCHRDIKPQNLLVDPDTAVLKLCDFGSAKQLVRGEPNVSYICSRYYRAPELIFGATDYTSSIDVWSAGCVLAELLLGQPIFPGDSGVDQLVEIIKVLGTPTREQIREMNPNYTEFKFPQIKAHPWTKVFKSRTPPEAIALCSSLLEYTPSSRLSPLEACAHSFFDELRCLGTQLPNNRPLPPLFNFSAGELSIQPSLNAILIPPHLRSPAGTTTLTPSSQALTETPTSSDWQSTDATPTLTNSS

Ki [1] | Ki [2] | Ki [3] | Ki [4] | Ki [5] | Ki [6] | Ki [7] | Ki [8] | Ki [9] | Ki [10] | Ki [11] | Ki [12] | Ki [13] | Ki [14] | Ki [15] | Ki [16] | Ki [17] | Ki [18] | Ki [19] | Ki (LIM domain kinase 1) | SMILES | also measured
50.1 µM (active) | 10 µM (active) | 3.98 µM (active) | 31.6 µM (active) | 31.6 µM (active) | 39.8 µM (active) | 31.6 µM (active) | 31.6 µM (active) | 7.94 µM (active) | 15.8 µM (active) | 10 µM (active) | 15.8 µM (active) | 25.1 µM (active) | 6.31 µM (active) | 31.6 µM (active) | 79.4 µM (active) | 3.16 µM (active) | 79.4 µM (active) | 25.1 µM (active) | 3.16 µM (active) | O=c1[nH][nH]c2ccc(Br)cc12 | Ki [20]: 39.8 µM (active); Ki [21]: 1.26 µM (active); Ki [22]: 7.94 µM (active); Ki [23]: 7.94 µM (active); Ki [24]: 1.58 µM (active); Ki [25]: 31.6 µM (active); Ki [26]: 63.1 µM (active); Ki [27]: 31.6 µM (active); Ki (Aurora kinase A): 7.94 µM (active); Ki [28]: 79.4 µM (active); Ki [29]: 25.1 µM (active); Ki [30]: 12.6 µM (active); Ki [31]: 12.6 µM (active); Ki [32]: 3.16 µM (active); Ki (Activin receptor type-1): 7.94 µM (active)
> 5.01 µM (inactive) | > 3.98 µM (inactive) | 0.00794 µM (active) | > 2.51 µM (inactive) | > 2.51 µM (inactive) | > 3.98 µM (inactive) | > 3.98 µM (inactive) | > 3.98 µM (inactive) | > 3.98 µM (inactive) | > 2.51 µM (inactive) | > 3.16 µM (inactive) | 2 µM (active) | > 5.01 µM (inactive) | > 3.16 µM (inactive) | > 6.31 µM (inactive) | 0.00126 µM (active) | 1.26 µM (active) | 2 µM (active) | > 2.51 µM (inactive) | > 3.16 µM (inactive) | COc1cc2c(cc1Nc1nc(Nc3cccc(F)c3C(N)=O)c3cc[nH]c3n1)N(C(=O)CN(C)C)CC2 | Ki [20]: > 2.51 µM (inactive); Ki [21]: 0.02 µM (active); Ki [22]: 0.1 µM (active); Ki [23]: > 3.16 µM (inactive); Ki [24]: > 1.58 µM (inactive); Ki [25]: > 3.98 µM (inactive); Ki [26]: > 2.51 µM (inactive); Ki [27]: > 3.16 µM (inactive); Ki (Aurora kinase A): > 1.58 µM (inactive); Ki [28]: > 2.51 µM (inactive); Ki [29]: > 3.16 µM (inactive); Ki [30]: > 2.51 µM (inactive); Ki [31]: > 3.16 µM (inactive); Ki [32]: > 3.16 µM (inactive); Ki (Activin receptor type-1): > 3.98 µM (inactive)
